Entries after “also recorded” stand apart in the source; their conditions may differ.
How the values were obtained:
MCF-7 cells = assay: AO/PI dye exclusion test, MCF-7; format: cell-based, human; conditions: 24 h
Experimental: (§1) Extended biological investigations were performed for compounds 25 and 26 using dye exclusion acridine orange (AO)/propidium iodide (PI) assays by treating MCF-7 or A2780 tumor cells with 25 and 26, respectively for 24 h (Figure 3). […] For both compounds, membrane blebbing of some cells could also be observed. These observations can be regarded as indications of apoptosis.
(§2) Morphological characteristics of cell death were analyzed employing an AO/PI assay using human cancer cell lines A2780 and MCF-7. Approximately 8 × 10^5 cells were seeded in cell culture flasks (25 cm^2), and the cells were allowed to grow for 24 h. After removing the used medium, fresh medium was reloaded (or a blank new medium was used as a control). After 24 h, the content of the flask was collected and centrifuged (1200 rpm, 4 °C), and the pellet was gently suspended in phosphate-buffered saline (PBS (w/w), 1 mL) and centrifuged again. The PBS was removed, and the pellet gently suspended in PBS (50 µL) again. The analysis of the cells was performed using a fluorescence microscope after having mixed the cell suspension (10 µL) with a solution of AO/PI (1 µg/mL, 10 µL).

[1] = test system: A2780 (ovarian carcinoma); assay: SRB cytotoxicity assay, A2780; format: cell-based, human; conditions: for factor by which activity is reduced compared to doxorubicin hydrochloride (DRC): A2780 tumor cells, EC50 versus DRC; for EC50: Homo sapiens, SRB assay, 96 h of treatment, A2780; for Selectivity index (SI) A2780: SI = EC50 (NIH 3T3)/EC50 (A2780)
Outline: (§3)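 Cells grown in RPMI 1640/10% FBS, treated 24 h after seeding with at least six concentrations (1–30 µM; DMSO/DMF ≤0.5%) for 96 h, then TCA-fixed, SRB-stained and read at 570 nm. EC50 from 4-parameter Hill fits (top 100, bottom 0), mean of three independent triplicate experiments.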

A2780 cells = assay: AO/PI dye exclusion test, A2780; format: cell-based, human; conditions: 1 µM, 24 h
Experimental: as §1, §2

[2] = test system: MCF-7 (breast adenocarcinoma); assay: SRB cytotoxicity assay, MCF-7; format: cell-based, human; conditions: for EC50: Homo sapiens, MCF7, SRB assay, 96 h of treatment, MCF-7; for Selectivity index (SI) MCF-7: SI = EC50 (NIH 3T3)/EC50 (MCF-7)
Outline: as §3

518A2 (melanoma) = assay: SRB cytotoxicity assay, 518A2; format: cell-based, human; conditions: for EC50: Homo sapiens, SRB assay, 96 h of treatment, 518A2; for Selectivity index (SI) 518A2: SI = EC50 (NIH 3T3)/EC50 (518A2)
Outline: as §3

[3] = test system: 8505C (thyroid carcinoma); assay: SRB cytotoxicity assay, 8505C; format: cell-based, human; conditions: for EC50: Homo sapiens, SRB assay, 96 h of treatment, 8505C; for Selectivity index (SI) 8505C: SI = EC50 (NIH 3T3)/EC50 (8505C)
Outline: as §3

[4] = test system: several human tumor cell lines; assay: SRB cytotoxicity assay, cell line panel (summary statements); format: cell-based; conditions: for EC50: Homo sapiens, summary over the cell lines tested; for SI factors (over the cancerous cell lines): SI = EC50 (NIH 3T3)/EC50 (tumor cell line), summary
Experimental: The cytotoxicity of ursolic and betulinic carboxamides 3–30 was determined in sulforhodamine B (SRB) assays.
The cell lines used were human cancer cell lines: 518A2 (melanoma), A2780 (ovarian carcinoma), HT29 (colon adenocarcinoma), MCF-7 (breast adenocarcinoma), 8505C (thyroid carcinoma) and non-malignant mouse fibroblasts NIH 3T3. Cultures were maintained as monolayers in RPMI 1640 medium with L-glutamine (Capricorn Scientific GmbH, Ebsdorfergrund, Germany) supplemented with 10% heat inactivated fetal bovineserum (Sigma-Aldrich Chemie GmbH, Steinheim, Germany) and penicillin/streptomycin (Capricorn Scientific GmbH, Ebsdorfergrund, Germany) at 37 °C in a humidified atmosphere with 5% CO2.
The cytotoxicity of the compounds was evaluated using the sulforhodamine-B (Kiton-Red S, ABCR) micro culture colorimetric assay. Cells were seeded into 96-well plates on day 0 at appropriate cell densities to prevent confluence of the cells during the period of experiment. After 24 h, the cells were treated with 6 different concentrations (1, 3, 7, 12, 20 and 30 µM) minimum. The final concentration of DMSO/DMF never exceeded 0.5%, which was non-toxic to the cells. After a 96 h treatment, the supernatant medium from the 96-well plates was discarded, the cells were fixed with 10% trichloroacetic acid (TCA) and allowed to rest at 4 °C. After 24 h fixation, the cells were washed in a strip washer and dyed with SRB solution (100 µL, 0.4% in 1% acetic acid) for about 20 min. After dying, the plates were washed four times with 1% acetic acid to remove the excess of the dye and allowed to air-dry overnight. Tris base solution (200 µL, 10 mM) was added to each well and absorbance was measured at λ = 570 nm using a 96-well plate reader (Tecan Spectra, Crailsheim, Germany). The EC50 values were averaged from three independent experiments performed each in triplicate calculated from semi logarithmic dose response curves applying a non-linear 4P Hills-slope equation (GraphPad Prism5; variables top and bottom were set to 100 and 0, respectively).

[5] = test system: non-malignant mouse fibroblasts NIH 3T3; assay: SRB cytotoxicity assay, NIH 3T3; format: cell-based; conditions: NIH3T3, 96 h of treatment
Outline: as §3

[6] = test system: HT29 (colon adenocarcinoma); assay: SRB cytotoxicity assay, HT29; format: cell-based, human; conditions: for EC50: Homo sapiens, HT-29, SRB assay, 96 h of treatment, HT29; for Selectivity index (SI) HT29: SI = EC50 (NIH 3T3)/EC50 (HT29)
Outline: as §3

| SMILES | AO/PI fluorescence microscopy, cell morphology (MCF-7 cells; 1 µM) | factor by which activity is reduced compared to doxorubicin hydrochloride (DRC) [1] | EC50 [1] | Selectivity index (SI) A2780 [1] | AO/PI fluorescence microscopy, cell morphology (A2780 cells) | EC50 [2] | Selectivity index (SI) MCF-7 [2] | EC50 (518A2 (melanoma)) | Selectivity index (SI) 518A2 (518A2 (melanoma)) | EC50 [3] | Selectivity index (SI) 8505C [3] | EC50 [4] | SI factors (over the cancerous cell lines) [4] | EC50 [5] | EC50 [6] | Selectivity index (SI) HT29 [6] | AO/PI fluorescence microscopy, cell morphology (MCF-7 cells; 0.75 µM) |
| --- | --- | --- | --- | --- | --- | --- | --- | --- | --- | --- | --- | --- | --- | --- | --- | --- | --- |
| C=C(C)C1CC[C@]2(C(=O)NCCN(C)C)CC[C@]3(C)C(CCC4[C@@]5(C)CC[C@H](O)C(C)(C)C5CC[C@]43C)C12 (stereo partly drawn) [Compound 25, (3β)-N-[2-(Dimethylamino)ethyl]-3-hydroxy-lup-20(29)-en-28-amide] | both apoptotic (membrane blebbing, marked by white arrows in Figure 3) and necrotic cells (red staining) | 20 | 200 ± 10 nM | 1.50 | both green colored cells as well as late-stage apoptotic cells | 300 ± 70 nM | 1.00 | 300 ± 160 nM | 1.00 | 400 ± 40 nM | 0.75 | < 1000 nM | ~1 | 300 ± 90 nM | 300 ± 50 nM | 1.00 |  |
| C=C(C)C1CC[C@]2(C(=O)NCCN3CCCC3)CC[C@]3(C)C(CCC4[C@@]5(C)CC[C@H](O)C(C)(C)C5CC[C@]43C)C12 (stereo partly drawn) [Compound 26, (3β)-N-(2-Pyrrolidin-1-ylethyl)-3-hydroxy-lup-20(29)-en-28-amide] |  | 30 | 300 ± 100 nM | 1.33 | both green colored cells as well as late-stage apoptotic cells | 200 ± 50 nM | 2.00 | 400 ± 60 nM | 1.00 | 500 ± 60 nM | 0.80 | < 1000 nM | ~1 | 400 ± 20 nM | 400 ± 20 nM | 1.00 | intact cell membranes (green staining); also recorded: protrusions in the plasma membrane (blebbing) of some cells |

From paper PMC6222718, “Ethylenediamine Derived Carboxamides of Betulinic and Ursolic Acid as Potential Cytotoxic Agents” (Molecules : A Journal of Synthetic Chemistry and Natural …, 2018)
